From PubChem BioAssay AID2305 (GlaxoSmithKline (GSK), 2010)
Values joined by “and” are separate entries in the source; they are usually repeats but may differ in a detail not shown here. Equal values may be shown once.

Test system: P. falciparum 3D7 growth, pLDH absorbance
Assay: P. falciparum 3D7 growth inhibition, dose response, strain 3D7 (AID 2305)

Row | SMILES | IC50
1 | Cc1ccc(Oc2ccc(NC(=O)CNc3ccccc3N3CCCC3=O)cc2)cc1 | 370 nM
2 | O=C(/C=C/c1ccc([N+](=O)[O-])cc1)N1CCC(NS(=O)(=O)c2ccc(Br)cc2)CC1 | 1050 nM
3 | O=C(NC1CCCCC1)c1ccc(O)c(-c2cccc(C(F)(F)F)c2)c1 | 710 nM
4 | N#Cc1ccc(NC(=NC2CCN(Cc3ccccc3)CC2)Nc2ccccc2Cl)c(O)c1 | 300 nM
5 | CC(C)c1ccc(NC(=O)c2ccc(C(=O)NC3CCN(Cc4ccsc4)C3)cc2)cc1 (stereo not drawn) | 1030 nM
6 | CCc1cn(C)c2c(N3CCCC3=O)cc(C(=O)N[C@@H](Cc3ccccc3)[C@H](O)CNCc3cccc(OC)c3)cc12 | 780 nM
7 | CS(=O)(=O)N(c1cccc(F)c1)c1cc(C(=O)N[C@@H](Cc2ccccc2)[C@H](O)CNCc2cccc(C(F)(F)F)c2)cc(N2CCCC2=O)c1 | 910 nM
8 | COc1ccc(OC)c(Cc2cnc3nc(N)[nH]c(=O)c3c2C)c1 | 360 nM
9 | FC(F)(F)c1ccc2c(NN=Cc3cccc(Cl)c3)ccnc2c1 | 840 nM
10 | O=C(Cc1ccc([N+](=O)[O-])cc1)N1CCc2cc3nccc(N4CCN5CCC[C@H]5C4)c3cc21 | 840 nM
11 | CCCC(CNCc1cccc(OCC)c1)CNc1cc(=O)c2ccccc2[nH]1 (stereo not drawn) | 850 nM
12 | Cc1[nH]c2ccc(O)cc2c1C1CCN(CC2CCC(NC(=O)/C=C/c3ccc(Cl)c(Cl)c3)CC2)CC1 (stereo not drawn) | 760 nM
13 | Cc1ccc(CNC(=O)[C@H](Cc2ccccc2)Nc2cc(C)nc(NCc3ccccc3C)n2)cc1 | 800 nM
14 | OCCOCCNCc1cccc(C#Cc2cc3ncnc(Nc4ccc(OCc5cccc(F)c5)c(Cl)c4)c3s2)n1 | 780 nM
15 | N#Cc1ccc(OCCN(Cc2ccccc2C(F)(F)F)c2ccc(C#N)c(C(F)(F)F)c2)cc1 | 280 nM
16 | Cc1ncccc1-c1cccc2c(NC(=O)Nc3ccc4nccc(N5CCN(C)CC5)c4c3)cccc12 | 630 nM
17 | O=c1cc(NCCCNCc2ccc(C(F)(F)F)cc2F)[nH]c2ccccc12 | 960 nM
18 | Cc1ccc2cc(C3NC(=O)c4ccccc4N3)c(Cl)nc2c1 (stereo not drawn) | 940 nM
19 | c1cc(Cc2ccc(Nc3c4ccccc4nc4ccccc34)cc2)cc(Nc2c3ccccc3nc3ccccc23)c1 | 140 nM
20 | COc1ccc(CC(=O)NC(CCCN2CCC3(CC2)OCc2ccccc23)c2ccc(Cl)c(Cl)c2)cc1 (stereo not drawn) | 1130 nM
21 | CCCCc1cc(Cc2cnc(N)nc2N)cc(OC)c1OC | 1040 nM
22 | Cc1[nH]c2ccccc2c(=O)c1[N+](=O)[O-] | 1110 nM
23 | Cc1cc(-c2ccc3c(c2)CCN(CCC2CCC(NC(=O)/C=C/c4cccc(Cl)c4)CC2)CC3)on1 (stereo not drawn) | 590 nM
24 | Nc1ncc(-c2cn[nH]c2)cc1-c1nc2ccc(Cl)cc2[nH]1 | 800 nM
25 | COc1ccc(-c2ccc(NC(=O)c3ccc(Cl)cc3)cc2)cc1CN1CCC(O)CC1 | 1090 nM

Row | SMILES | IC50
26 | COc1cccc2sc(N3CCN(C(=O)c4ccc([N+](=O)[O-])o4)CC3)nc12 | 870 nM
27 | Cc1ccc(-c2cc(C(=O)Nc3ccc(S(=O)(=O)N4CCOCC4)cc3)[nH]n2)c(O)c1C | 920 nM
28 | N#Cc1cccc(NC(=O)Nc2ccc3c(c2)CN(Cc2c[nH]c4ncccc24)C3)c1 | 800 nM
29 | O=C(Nc1cccc(-c2cccc(-c3nc4ccccc4[nH]3)c2)c1)c1csnn1 | 920 nM
30 | CC1(C)N=C(N)N=C(N)N1c1ccc([N+](=O)[O-])cc1 | 230 nM
31 | O=C(N[C@H]1CCN(Cc2ccc(OCCCN3CCCCC3)cc2)C1)c1ccc(Cl)c(Cl)c1 | 780 nM
32 | COc1cc(-n2c(CN3CCCC3)nc3cc(-c4ccc(Cl)cc4)sc3c2=O)ccc1OCCN1CCCC1 | 1040 nM
33 | CN1CCN(c2ccc(Nc3c(C(N)=O)cnc4cc(-c5ccoc5)ccc34)cc2)CC1 | 810 nM
34 | COc1cc2ccccc2cc1CCNCCCCNCCc1cc2ccccc2cc1OC | 400 nM
35 | COc1cc(Cc2cnc(N)nc2N)cc(OCCCCC#N)c1OC | 1040 nM
36 | Cc1cccc2[nH]c(-c3ccc(-c4cccc(NC(=O)c5cncn5C)c4)s3)nc12 | 640 nM
37 | COc1ccc(CN(C2CC2)C(C)C(=O)c2[nH]c(C)c(C(C)=O)c2C)cc1 (stereo not drawn) | 1590 nM
38 | CC(C)(C)c1ccc(S(=O)(=O)Nc2ccccc2N2CCOCC2)cc1 | 680 nM
39 | Cc1cnc(C(=O)Nc2cccc(-c3ccc(-c4nc5ccc(F)cc5[nH]4)cc3)c2)cn1 | 640 nM
40 | CN(C)CC(=O)N(Cc1ccc(Cl)c(Cl)c1)Cc1csc(-c2ccc(CNCc3ccccc3)cc2)n1 | 1050 nM
41 | Cc1nnc2c(NC(=O)NC3CCCC3)cc3cc(-c4ccc(CN5CCN(C)CC5)cc4)ccc3n12 | 1020 nM
42 | CC[C@H](C)CNC(=O)c1ccc(-c2cccc(CN3CCC(N4CCCC4)CC3)c2)nc1 | 790 nM
43 | CN1CCN(CCCN(Cc2csc(-c3ccc(CNCc4ccccc4)cc3)n2)C(=O)Nc2ccc3ccccc3c2)CC1 | 1100 nM
44 | O=C(N[C@@H](Cc1ccccc1)C(=O)NCc1cccc2ccccc12)c1ccc(O)c(-c2ccc(Cl)c(Cl)c2)c1 | 240 nM
45 | COC(=O)c1ccc(C[C@@H](C)NC[C@H](O)c2cccc(C(F)(F)F)c2)cc1 | 790 nM and 760 nM
46 | Cc1ccc(-c2ccn(Cc3ccc(OCc4ccccc4)cc3)n2)cn1 (tested in a mixture with another compound) | 670 nM
47 | Cc1ccc(Nc2nc(N)c3ccccc3n2)cc1 | 840 nM
48 | O=C(Nc1cccc(-c2ccc(-c3nc4ccccc4[nH]3)cc2)c1)c1ccncc1 | 530 nM
49 | C=CC[C@H](C[C@H](O)[C@H](Cc1ccccc1)NC(=O)c1nn(-c2ccccc2)nc1C)C(=O)NC1CCCCC1 | 920 nM
50 | CCOC(=O)COc1cccc(CNc2ccc3nc(N)nc(N)c3c2)c1 | 410 nM

Row | SMILES | IC50
51 | COc1ccc2ccccc2c1CCCCN1CCN(CC(c2ccc(F)cc2)N2CCN(C3CCCC3)CC2)CC1 (stereo not drawn) | 770 nM
52 | CN(C)CCOc1ccc(/C(=C(/CCCn2ccnc2)c2ccccc2)c2ccc(O)cc2)cc1 | 770 nM
53 | O=C(NC1CC1)C1CCN(Cc2cc3ccccc3n2Cc2ccc(Cl)cc2)CC1 | 490 nM
54 | CC(Cc1ccc(OCCCCOc2ccccc2)cc1)NCCCc1nc2ccccc2[nH]1 (stereo not drawn) | 980 nM
55 | COc1ccccc1CN1CCC(NC(=O)c2ccc(-c3ccc(N(C)C)cc3)s2)CC1 | 960 nM
56 | CCCC(CNCc1cccc(OC(F)(F)F)c1)CNc1cc(=O)c2ccccc2[nH]1 (stereo not drawn) | 560 nM
57 | CCSc1nc2sc3c(c2c(=O)n1-c1ccccc1)CCN(C)C3 | 460 nM
58 | O=[N+]([O-])c1ccc(N2CCCN(C(=S)Nc3ccc(F)cc3Br)CC2)nc1 | 300 nM
59 | Nc1nc(N)c2c(Sc3ccccc3)cccc2n1 | 650 nM
60 | CC1N=C(N)N=C(N)N1OCc1ccccc1 (stereo not drawn) | 30 nM
61 | O=C(NCCCCN1CCC(c2ccc(OC(F)(F)F)cc2)CC1)c1ccc(NC(=O)c2ccc(Cl)cc2)cc1 | 630 nM
62 | CC(C)(C)c1ccc(CN2CCCCC(NC(=O)c3cc(-c4cccc(F)c4)cs3)C2)cc1 (stereo not drawn) | 780 nM
63 | COc1c(C2=CCN(CCCCNC(=O)c3ccc(-c4ccc(C#N)cc4)cc3)CC2)ccc2c1CCCC2 | 910 nM
64 | Cc1noc(C)c1CN1CCCN(c2ccc3c(c2)CCN(Cc2ccc(-c4ncc[nH]4)cc2)CC3)CC1 | 860 nM
65 | Clc1ccc(Nc2nc(-c3ccccn3)cs2)nc1 | 770 nM
66 | CN(C(=O)/C=C/c1ccccc1F)C1CCN(CCCCCNC(=O)/C=C/c2ccc(Cl)c(Cl)c2)CC1 | 510 nM
67 | Cc1ccnc(NC(c2ccc(Cl)c([N+](=O)[O-])c2)c2ccc3cccnc3c2O)c1 (stereo not drawn) | 930 nM
68 | CCc1nnc2sc(-c3cccc(NC(=O)c4ccc(OC)c(Cl)c4)c3)nn12 | 1140 nM
69 | CC1=C(C(=O)OCCOCc2ccccc2)C(c2ccccc2C(F)(F)F)C(C(=O)OCCOCc2ccccc2)=C(C)N1 | 530 nM
70 | CN(C)CCOc1ccc(-c2cc(-c3ccc(Cl)c(O)c3)c(-c3ccnc(N)n3)o2)cc1 | 1320 nM
71 | c1cc(CN2CCc3ccccc3CC2)cc(-c2c[nH]c3nc(NC4CCCC4)ncc23)c1 | 800 nM
72 | Cc1ccc(C2CCN(CCCCNC(=O)c3ccc(-c4ccc(C#N)cc4)cc3)CC2)c(O)c1 | 290 nM
73 | Cc1cccc(NC(c2cccs2)c2c(NC(=O)c3ccccc3)sc(C)c2C)n1 (stereo not drawn) | 830 nM
74 | O=c1cc(NCC2(CNCc3cn(Cc4ccccc4)c4ccccc34)CCCCC2)[nH]c2ccccc12 | 680 nM
75 | O=c1cc(N2CCNCC2)c(Cl)nn1Cc1ccc(NS(=O)(=O)c2ccc(Oc3ccccc3)cc2)cc1 | 570 nM

Row | SMILES | IC50
76 | CCC(C)NS(=O)(=O)c1ccc2nc(Nc3ccc(C)cc3)n(C3CCCCC3C)c2c1 (stereo not drawn) | 590 nM
77 | CNC(=O)c1cc(NCCCNCc2ccc(Cl)c(C(F)(F)F)c2)nc2ccccc12 | 930 nM
78 | CN(C)CCNCc1ccc(-c2ccc(-c3nc4ccc(F)cc4[nH]3)cc2)cc1 | 470 nM
79 | COc1ccc(-c2cccc(NC(=O)c3cccc(C#N)c3)c2)cc1CN(C)CCO | 820 nM
80 | O=C(c1cnn(-c2ccccc2)c1C(F)(F)F)N1CCN(c2ccnc3cc(Cl)ccc23)CC1 | 530 nM
81 | Fc1ccc(CNc2ccc3ncc(-c4cccnc4)n3n2)cc1 | 930 nM
82 | N#CC1(CCCNCCc2ccc(O)cc2)CCCc2c(O)cccc21 (stereo not drawn) | 760 nM
83 | CN(C)CCOc1ccc(-c2cc(-c3ccc(Cl)c(O)c3)c(-c3ccncc3)o2)cc1 | 1450 nM
84 | CCN(CC)CCN(Cc1ccc(-c2ccc(C(F)(F)F)cc2)cc1)C(=O)Cn1c(CCc2cccc(F)c2F)nc(=O)c2cc(C)ccc21 | 940 nM
85 | O=S(=O)(Nc1ccc(CCN2CCC(N3CCCCC3)CC2)cc1)c1ccc2ccccc2c1 | 1010 nM
86 | COc1ccc(F)cc1-c1csc(N(c2ccc(F)cc2)C2CCNCC2)n1 | 1210 nM
87 | C[C@@H](Oc1cc(-n2cnc3cc(SCCN4CCN(C)CC4)ccc32)sc1C(N)=O)c1ccccc1Cl | 510 nM
88 | Cc1[nH]c(C)c(-c2ccc(-c3ccccc3)nc2)c(=O)c1Br | 660 nM
89 | COc1ccc(NC(=O)CCNc2cc(C)nc(Nc3ccccc3)n2)cc1 | 1100 nM
90 | CC(C)(C)CC(C)(C)c1ccc(O)c(C(=O)Nc2ccc([N+](=O)[O-])cc2)c1 | 770 nM
91 | CN1CCN(CCCN(Cc2cccc(-c3cccc(CNC4CCCC4)c3)c2)C(=O)/C=C/c2ccccc2)CC1 | 780 nM
92 | Cc1cc(OC(C)C(=O)N2CCc3ccccc32)ccc1Cl (stereo not drawn) | 790 nM
93 | O=C(Nc1ccc(Br)cc1)N(CCN1CCOCC1)CC(O)COc1ccc(Cl)c(F)c1 (stereo not drawn) | 1040 nM
94 | N=C(N)c1cccc(OCCCOc2cccc(NC(=O)Nc3ccc([N+](=O)[O-])cc3)c2)c1 | 860 nM
95 | O=[N+]([O-])c1cccc(-c2nc(-c3ccc(Br)cc3)[nH]c2-c2ccc(Br)cc2)c1 | 760 nM
96 | CCc1cc2c3c(N)nc(N)nc3ccc2n1C(C)(C)C | 10 nM
97 | Cc1ccc(-c2csc(C)n2)c(C)c1 | 990 nM
98 | COc1ccc(Nc2ncc(Cl)c(Nc3cccnc3C(N)=O)n2)cc1N1CCN(C)CC1 | 230 nM
